# Test results as given in paper PMC9646675 (Nature, 2022).
# pIC50: −log10 of the molar value.
# Tests used:
# [1] = biological target: T1, uncoupling protein 1 (UCP1) (Mus musculus, UniProt P12242); assay: whole-IMM patch clamp, dose-dependent inhibition of IH induced by […] DNP; assay type: biochemical
# T1 sequence (P12242 1-307): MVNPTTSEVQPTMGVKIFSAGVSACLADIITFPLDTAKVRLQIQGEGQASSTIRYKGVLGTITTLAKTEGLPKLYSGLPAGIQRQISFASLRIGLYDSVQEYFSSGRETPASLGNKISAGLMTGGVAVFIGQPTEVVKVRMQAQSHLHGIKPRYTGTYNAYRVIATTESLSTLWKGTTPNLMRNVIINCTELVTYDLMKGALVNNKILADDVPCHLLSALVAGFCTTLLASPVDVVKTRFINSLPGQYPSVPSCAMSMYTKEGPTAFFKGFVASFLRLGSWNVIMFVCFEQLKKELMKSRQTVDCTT
# [2] = biological target: T1, uncoupling protein 1 (UCP1); assay: whole-IMM patch clamp, WT vs UCP1-/-; assay type: cell-based
# ADP/ATP carrier AAC1 = biological target: T2, ADP/ATP carrier AAC1 (Mus musculus, UniProt P48962); assay: whole-IMM patch clamp; assay type: cell-based
# T2 sequence (P48962 2-298): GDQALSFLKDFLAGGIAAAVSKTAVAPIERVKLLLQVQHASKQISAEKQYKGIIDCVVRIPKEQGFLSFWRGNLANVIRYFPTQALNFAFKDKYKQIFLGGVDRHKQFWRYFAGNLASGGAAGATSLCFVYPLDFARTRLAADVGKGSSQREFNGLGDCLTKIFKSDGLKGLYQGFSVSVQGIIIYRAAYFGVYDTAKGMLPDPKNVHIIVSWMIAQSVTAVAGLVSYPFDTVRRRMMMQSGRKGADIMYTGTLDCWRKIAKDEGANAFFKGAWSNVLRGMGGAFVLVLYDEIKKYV
compound,measurement,setting,value
Nc1ncnc2c1ncn2[C@@H]1O[C@H](COP(=O)(O)OP(=O)(O)OP(=O)(O)O)[C@@H](O)[C@H]1O [ATP],pIC50,[1],~4.85
"O=[N+]([O-])c1ccc(O)c([N+](=O)[O-])c1 [DNP, 2,4-dinitrophenol]","whole-IMM patch clamp, WT vs UCP1-/-; GDP block; competition with ATP",[2],"Thus, UCP1 is crucial for DNP-induced IH in brown fat mitochondria."
N#CC(C#N)=NNc1ccc(OC(F)(F)F)cc1 [FCCP],"whole-IMM patch clamp (25-250 nM), WT vs AAC1-/-; CATR block",ADP/ATP carrier AAC1,DNP and FCCP activate IH through AAC.
